What was measured:
MCF-7 = assay: MTT test, cytotoxic effect; format: cell-based; conditions: Homo sapiens, MCF7, 24 h treatment, 0.1 to 100 µM, concentration that causes 50% cell death
Protocol: (§1) At the first stage of biological testing, we studied the effect of the synthesized compounds on the survival of cells of both tumoral and normal origin. […] In our work, the cytotoxic profile of the synthesized molecules was assessed using the MTT test, based on the ability of a colorless tetrazolium salt (3-[4,5-dimethylthiazol-2-yl]-2,5-diphenyltetrazolium bromide, MTT) to be reduced to colored formazan in the presence of the mitochondrial enzymes of living cells. For this purpose, a number of cell lines of tumoral origin (SH-SY5Y, A549, MCF-7 and SW-480), as well as normal origin (Hek-293), were used.
(§2) For the experiments, we used tumor cell cultures SH-SY5Y, human neuroblast-like cells, A549, human lung adenocarcinoma, MCF-7, human mammary adenocarcinoma, SW-480 and human colorectal adenocarcinoma, as well as cells of normal origin obtained from human embryonic kidneys, Hek-293.
(§3) All cells were cultured in the Dulbecco Modified Eagle’s Medium (DMEM) with a high glucose content, 10% fetal bovine serum and 1% penicillin-streptomycin as an antibiotic, in a moist incubator with 5% CO2 at 37°C.
(§4) To measure cellular metabolic activity, a colorimetric analysis was performed using the MTT reagent (3-(4,5–dimethylthiazol-2-yl)-2,5-diphenyltetrazolium bromide), which is an inhibitor of viable cells [73, 74].
(§5) • Briefly, cells in the logarithmic growth phase were digested and resuspended to adjust the cell density. The cells were then seeded in 96-well plates at a density of 10,000 cells per well. After 24 h of the incubation of the cells under the standard conditions described above (for the purpose of cell adhesion), the cells were treated with the synthesized compounds at different concentrations (0.1 to 100 µM) or a vehicle alone as a control (1% DMSO) for 24 h. After the incubation time of the cells with synthesized compounds, 5 mg/mL of MTT was added to the cells and incubated for 2 h at 37 °C. Next, the supernatant was discarded; after that, the formazan crystals were dissolved in a DMSO and the absorbance of each well was measured at 570 nm using a multifunctional microplate reader, Cytation3 (Biotech Tools Inc., Winooski, USA).

[1] = MTT test, cytotoxic effect on cells of normal origin; format: cell-based, human; conditions: human, Hek-293 cells (normal origin), 24 h treatment, 0.1 to 100 µM, normal cells, concentration that causes 50% cell death
Protocol: as §1, §2, §3, §4, §5

A549 = assay: MTT test, cytotoxic effect; format: cell-based; conditions: Homo sapiens, 24 h treatment, 0.1 to 100 µM, concentration that causes 50% cell death
Protocol: as §1, §2, §3, §4, §5

SH-SY5Y = assay: cells; conditions: Homo sapiens, 24 h, read-out: IC50 of the cytotoxic effect, SH-SY5Y
Protocol: as §1, §2, §3, §4, §5

SW-480 = assay: MTT test, cytotoxic effect; format: cell-based; conditions: Homo sapiens, SW480, 24 h treatment, 0.1 to 100 µM, concentration that causes 50% cell death
Protocol: as §1, §2, §3, §4, §5

Row | melting point [°C] | Compound | IC50 (MCF-7) [µM] | IC50 at 24 h [1] [µM] | IC50 (A549) [µM] | IC50 (SH-SY5Y) [µM] | IC50 (SW-480) [µM]
1 | 100 to 104 | CCOC(=O)c1ccc2c(c1)ncn2-c1cc(C(F)(F)F)ccc1-n1nnc2ccccc21 [7b, Ethyl 1-[2-(1H-benzotriazol-1-yl)-5-(trifluoromethyl)phenyl]-1H-benzimidazole-5-carboxylate] | ≥ 100 | ≥ 100 | ≥ 100 | ≥ 100 | ≥ 100
2 | 192 to 195 | Nc1cc(Cl)ccc1-n1cnc2ccccc21 [4b, 2-(1H-benzimidazol-1-yl)-5-chloroaniline] | ≥ 100 | ≥ 100 | ≥ 100 | ≥ 100 | ≥ 100
3 | 154 to 156 | Nc1cc(Cl)ccc1-n1nnc2ccccc21 [4e, 2-(1H-benzotriazol-1-yl)-5-chloroaniline] | 82.48 ± 0.32 | 87.4 ± 1.42 | 91.87 ± 0.02 | 99.1 ± 1.47 | ≥ 100
4 | 180 to 183 | O=[N+]([O-])c1cc(C(F)(F)F)ccc1Nc1cc(C(F)(F)F)ccc1-n1cnc2ccccc21 [5a, N-[2-(1H-benzimidazol-1-yl)-5-(trifluoromethyl)phenyl]-2-nitro-4-(trifluoromethyl)aniline] | ≥ 100 | ≥ 100 | ≥ 100 | ≥ 100 | ≥ 100
5 | 151 to 154 | ONc1cc(C(F)(F)F)ccc1-n1nnc2ccccc21 [8b, N-(2-(1H-benzotriazol-1-yl)-5-(trifluoromethyl)phenyl)hydroxylamine] | – | – | – | – | –
6 | 178 to 181 | O=[N+]([O-])c1cc(C(F)(F)F)ccc1Nc1cc(Cl)ccc1-n1nnc2ccccc21 [5d, N-[2-(1H-benzotriazol-1-yl)-5-chlorophenyl]-2-nitro-4-(trifluoromethyl)aniline] | ≥ 100 | ≥ 100 | ≥ 100 | ≥ 100 | ≥ 100
7 | 209 to 210 | Nc1cc(C(F)(F)F)ccc1-n1cnc2ccccc21 [4a, 2-(1H-benzimidazol-1-yl)-5-(trifluoromethyl)aniline] | 65.26 ± 0.07 | 82.89 ± 0.46 | 67.17 ± 0.12 | 66.75 ± 0.41 | 84.03 ± 0.38

The next lines start with the compound.

Row | Compound | melting point [°C] | IC50 (MCF-7) [µM] | IC50 at 24 h [1] [µM] | IC50 (A549) [µM] | IC50 (SH-SY5Y) [µM] | IC50 (SW-480) [µM]
8 | O=[N+]([O-])c1cc(Cl)ccc1-n1nnc2ccccc21 [3e, 1-(4-Chloro-2-nitrophenyl)-1H-benzotriazole] | 134 to 137 | ≥ 100 | ≥ 100 | ≥ 100 | ≥ 100 | ≥ 100
9 | CCOC(=O)c1ccc(-n2nnc3ccccc32)c([N+](=O)[O-])c1 [3d, Ethyl 4-(1H-benzotriazol-1-yl)-3-nitrobenzoate] | 115 to 119 | ≥ 100 | ≥ 100 | ≥ 100 | ≥ 100 | ≥ 100
10 | CCOC(=O)c1ccc(Nc2cc(C(F)(F)F)ccc2-n2nnc3ccccc32)c([N+](=O)[O-])c1 [5c, Ethyl 4-[2-(1H-benzotriazol-1-yl)-5-(trifluoromethyl)anilino]-3-nitrobenzoate] | 192 to 196 | ≥ 100 | ≥ 100 | ≥ 100 | ≥ 100 | ≥ 100
11 | O=[N+]([O-])c1cc(C(F)(F)F)ccc1Nc1cc(C(F)(F)F)ccc1-n1nnc2ccccc21 [5b, N-[2-(1H-benzotriazol-1-yl)-5-(trifluoromethyl)phenyl]-2-nitro-4-(trifluoromethyl)aniline] | 203 to 204 | ≥ 100 | ≥ 100 | ≥ 100 | ≥ 100 | ≥ 100
